Results: patent US20250122160A1, “PROTEIN TYROSINE PHOSPHATASE INHIBITORS AND METHODS OF USE THEREOF” (Calico Life Sciences LLC, priority 0001, published 2025)

Columns and labels:
[1] = target: T1, His tagged full-length PTPN1 protein (Homo sapiens, UniProt P18031); experiment: Mobility shift assay (MSA) to determine potency of PTPN1 inhibitors; assay type: biochemical; settings: 0.5 nM enzyme, 2 μM substrate
T1 construct: made in house
T1 sequence (P18031 with tags, fused parts or gaps): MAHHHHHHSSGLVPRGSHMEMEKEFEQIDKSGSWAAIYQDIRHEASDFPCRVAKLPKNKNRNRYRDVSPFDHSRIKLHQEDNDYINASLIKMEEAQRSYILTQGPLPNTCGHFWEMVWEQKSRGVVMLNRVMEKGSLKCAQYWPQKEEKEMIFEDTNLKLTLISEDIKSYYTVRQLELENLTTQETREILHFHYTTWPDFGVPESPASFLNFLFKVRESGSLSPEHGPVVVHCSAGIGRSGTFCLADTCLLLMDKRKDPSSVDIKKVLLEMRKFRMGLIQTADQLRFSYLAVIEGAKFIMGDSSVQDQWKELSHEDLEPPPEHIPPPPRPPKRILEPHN
Summary of the method: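 His-tagged full-length human PTPN1 (0.5 nM) preincubated with compound 10 min at room temperature in pH 7.5 HEPES buffer with EGTA, EDTA, Tween 20 and DTT. Dephosphorylation of 2 μM fluorescent phospho-insulin-receptor peptide over 10 min measured by mobility shift. IC50 from % inhibition across a 12-point, 1:3 dilution series.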

[2] = target: T2, His tagged PTPN2 (TC45) protein (Homo sapiens, UniProt P17706); experiment: Mobility shift assay (MSA) to determine potency of PTPN2 inhibitors; assay type: biochemical; settings: 0.5 nM enzyme, 2 μM substrate
T2 construct: made in house
T2 sequence (P17706 with tags, fused parts or gaps isoform P17706-2): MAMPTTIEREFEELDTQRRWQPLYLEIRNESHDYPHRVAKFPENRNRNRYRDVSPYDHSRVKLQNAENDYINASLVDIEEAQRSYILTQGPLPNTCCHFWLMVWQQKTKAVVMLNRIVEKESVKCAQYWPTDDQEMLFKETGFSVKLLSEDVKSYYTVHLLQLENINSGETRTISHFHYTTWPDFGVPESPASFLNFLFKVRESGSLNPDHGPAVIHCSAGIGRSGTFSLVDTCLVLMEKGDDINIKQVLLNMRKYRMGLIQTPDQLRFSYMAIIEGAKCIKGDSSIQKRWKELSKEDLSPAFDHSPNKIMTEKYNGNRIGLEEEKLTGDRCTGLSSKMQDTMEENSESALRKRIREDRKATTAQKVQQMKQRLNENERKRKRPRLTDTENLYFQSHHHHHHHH
Summary of the method: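 His-tagged human PTPN2 (TC45), 0.5 nM, preincubated 10 min at room temperature with compound (12-point, 1:3 dilutions) in HEPES pH 7.5 buffer with EGTA, EDTA, Tween 20 and DTT. Then 2 μM OG488-labelled phospho-insulin-receptor peptide was added for 10 min and quenched. % conversion was read by mobility shift, and IC50 came from % inhibition.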

## CC(C)C1CN(C2CCc3cc(O)c(N4CC(=O)NS4(=O)=O)c(F)c3C2)CCO1 (stereo not drawn) [Compound 181]
[1]
  IC50: 1 to 10 nM
[2]
  IC50: 1 to 10 nM

## O=C1CN(c2c(O)cc3c(c2F)CC(CNCCO)CC3)S(=O)(=O)N1 (stereo not drawn) [Compound 403, 5-(1-fluoro-3-hydroxy-7-{[(2-hydroxyethyl)amino]methyl}-5,6,7,8-tetrahydronaphthalen-2-yl)-1λ^6,2,5-thiadiazolidine-1,1,3-trione]
[1]
  IC50: 10 to 100 nM
[2]
  IC50: 10 to 100 nM

## O=C1CN(c2c(O)cc3c(c2F)C[C@H](NCC2CCC(C(F)(F)F)CC2)CO3)S(=O)(=O)N1 (stereo partly drawn) [Compound 380, 5-[(3S)-5-fluoro-7-hydroxy-3-({[4-(trifluoromethyl)cyclohexyl]methyl}amino)-3,4-dihydro-2H-1-benzopyran-6-yl]-1λ^6,2,5-thiadiazolidine-1,1,3-trione]
[1]
  IC50: 10 to 100 nM
[2]
  IC50: 10 to 100 nM

## Cc1nn(CC(F)F)c(C)c1CCN1CCc2cc(O)c(N3CC(=O)NS3(=O)=O)c(F)c2C1 [Compound 253]
[1]
  IC50: 1 to 10 nM
[2]
  IC50: 1 to 10 nM

## N#CC1CC1CN[C@@H]1CCc2cc(O)c(N3CC(=O)NS3(=O)=O)c(F)c2C1 (stereo partly drawn) [Compound 353, 2-({[(2R)-8-fluoro-6-hydroxy-7-(1,1,4-trioxo-1λ^6,2,5-thiadiazolidin-2-yl)-1,2,3,4-tetrahydronaphthalen-2-yl]amino}methyl)cyclopropane-1-carbonitrile]
[1]
  IC50: 10 to 100 nM
[2]
  IC50: 1 to 10 nM

## CC(C)(C)OC(=O)NCC1CCc2cc(O)c(N3CC(=O)NS3(=O)=O)c(F)c2C1 (stereo not drawn) [Compound 391, tert-butyl {[8-fluoro-6-hydroxy-7-(1,1,4-trioxo-1λ^6,2,5-thiadiazolidin-2-yl)-1,2,3,4-tetrahydronaphthalen-2-yl]methyl}carbamate]
[1]
  IC50: 10 to 100 nM
[2]
  IC50: 10 to 100 nM

## C[C@H]1C[C@@H](N)Cc2c1cc(O)c(N1CC(=O)NS1(=O)=O)c2F [Compound 398, 5-[(5S,7R)-7-amino-1-fluoro-3-hydroxy-5-methyl-5,6,7,8-tetrahydronaphthalen-2-yl]-1λ^6,2,5-thiadiazolidine-1,1,3-trione]
[1]
  IC50: 10 to 100 nM
[2]
  IC50: 10 to 100 nM

## O=C1CN(c2c(O)cc3c(c2F)CC(O)CC3)S(=O)(=O)N1 (stereo not drawn) [Compound 335, 5-(1-fluoro-3,7-dihydroxy-5,6,7,8-tetrahydronaphthalen-2-yl)-1λ^6,2,5-thiadiazolidine-1,1,3-trione]
[1]
  IC50: 10 to 100 nM
[2]
  IC50: 10 to 100 nM

## CCOCCCN[C@@H]1CCc2cc(O)c(N3CC(=O)NS3(=O)=O)c(F)c2C1 [Compound 354, 5-{(7R)-7-[(3-ethoxypropyl)amino]-1-fluoro-3-hydroxy-5,6,7,8-tetrahydronaphthalen-2-yl}-1λ^6,2,5-thiadiazolidine-1,1,3-trione]
[1]
  IC50: 10 to 100 nM
[2]
  IC50: 1 to 10 nM

## CC(C)C(F)CNC1CCc2cc(O)c(N3CC(=O)NS3(=O)=O)c(F)c2C1 (stereo not drawn) [Compound 334, 5-{1-fluoro-7-[(2-fluoro-3-methylbutyl)amino]-3-hydroxy-5,6,7,8-tetrahydronaphthalen-2-yl}-1λ^6,2,5-thiadiazolidine-1,1,3-trione]
[1]
  IC50: 1 to 10 nM
[2]
  IC50: 1 to 10 nM

## Cc1nn(C)c(C)c1CN1CCc2cc(O)c(N3CC(=O)NS3(=O)=O)c(F)c2C1 [Compound 213]
[1]
  IC50: > 100 nM
[2]
  IC50: > 100 nM

## CC(C)CNC(=O)N1CCc2cc(O)c(N3CC(=O)NS3(=O)=O)c(F)c2C1 [Compound 206]
[1]
  IC50: 10 to 100 nM
[2]
  IC50: 10 to 100 nM

## CC1(C)COC(CCCCN2CCc3cc(O)c(N4CC(=O)NS4(=O)=O)c(F)c3C2)OC1 [Compound 296]
[1]
  IC50: > 100 nM
[2]
  IC50: 10 to 100 nM

## Cn1cccc1CN[C@@H]1CCc2cc(O)c(N3CC(=O)NS3(=O)=O)c(F)c2C1 [Compound 345, 5-[(7R)-1-fluoro-3-hydroxy-7-{[(1-methyl-1H-pyrrol-2-yl)methyl]amino}-5,6,7,8-tetrahydronaphthalen-2-yl]-1λ^6,2,5-thiadiazolidine-1,1,3-trione]
[1]
  IC50: 10 to 100 nM
[2]
  IC50: 10 to 100 nM

## CC(C)CCCN1CCc2cc(O)c(N3CC(=O)NS3(=O)=O)c(F)c2C1 [Compound 145]
[1]
  IC50: 10 to 100 nM
[2]
  IC50: 10 to 100 nM
